The values that follow come from patent publication US20090241222A1, “TANDEM REAPEAT DNA CONSTRUCTS PRODUCING PROTEINS THAT ATTACK PLANT PATHOGENIC VIRUSES, FUNGI, AND BACTERIA BY DISRUPTING TRANSCRIPTION FACTORS ESSENTIAL FOR REPLICATION THEREOF IN PLANTS” (priority 2008, published 2009).

“Also recorded” adds a separate entry of the source. Where two headings read alike, the source gives them in different places. Some results are limits rather than exact numbers.

Data set [1] relates to Mammalian rotaviruses. As to conditions: millimolar concentrations; cited from earlier work.
Data set [2] deals with mammalian retroviruses. The conditions noted are these: millimolar concentrations; cited from earlier work.
Data set [3] deals with Arabidopsis thaliana. As to conditions: cited from earlier work.
The subject of data set [4] is SV40 transformed BALB-3T3 cells. The conditions noted are these: cited from earlier work.
Data set [5] concerns tomato spotted wilt virus. The conditions noted are these: tomato and tobacco plants; cited from earlier work.
The subject of data set [6] is Common ornamental plant cells infected by viruses. The experiment in a line: Treatment of virus-infected ornamental plants. The conditions noted are these: viral strains not determined.
Data set [7] has as its system Arabidopsis thaliana. The conditions noted are these: in vivo; cited from earlier work.
Data set [8] concerns Orobanche ramosa. The conditions noted are these: Arabidopsis thaliana pre-treated with FU; cited from earlier work.
Data set [9] has as its system HSV-1. The conditions noted are these: tissue culture and animals; cited from earlier work.
The subject of data set [10] is HSV-2. The conditions noted are these: tissue culture and animals; cited from earlier work.
Data set [11] deals with T1, recombinant MPS-1 (CCCC zinc finger) (Homo sapiens, UniProt P42677).
T1 construct: made in house
Description: Gel shift assay and radioactive Zn65 removal from recombinant MPS-1. The class given is biochemical. The source says: MPS-1 is a ubiquitous tumor marker and cell growth stimulator and is described in detail in the inventors' U.S. Pat. No. 5,243,041. MPS-1 has one zinc finger domain of the type CCCC. […] This is detected by a change in the electrophoretic mobility of MPS-1 under non-denaturing conditions. These experiments indicate that picolinic acid and derivatives should remove zinc and denature various types of zinc finger, zinc ring proteins, or other types of ZF motifs whether known or heretofore undiscovered, including animal or plant viral proteins such as nucleocapsid proteins of retrovirus or the nucleocapsid proteins of Geminivirus. Furthermore, the inventors have determined that any chemical compound, whether known or heretofore undiscovered, that will remove the zinc (or other metal) and denature the proteins or that will form a ternary complex (protein-zinc-chelator) can be effective as an antiviral agent, with nontoxic effects, provided that the agent conforms with certain specific structural requirements.
For orientation: A gel shift assay detects complexes by their altered migration in electrophoresis.

Data set [12] relates to HIV-1, Hepatitis C and numerous other viruses as well as the host cells. The experiment in a line: Fate of virus-infected host cells after treatment. Format: cell-based. The source says:
APOPTOSIS. Apoptosis is a morphological pattern of cell injury and an important mode of cell death (Robbins, Pathological Basis of Disease, 1999, 6th Ed). Apoptosis shares and overlaps common mechanisms with necrosis. […] This form of cell death is designed to eliminate defective, unwanted and damaged cells. For example, the inventors have shown that cells infected by Herpes Simplex Virus 1 (HSV; labialis) and HSV-2 genitalis are destroyed together with the host cells that they infected by apoptosis when exposed to pyridine carboxylates (Fernandez-Pol, Anticancer Res. 2002). […] Thus, the inventors believes that when host cells of animals or plants are infected by pathogenic viruses, unless the treatment is extremely quickly, the host cells and the virus will be destroyed. In fact, host cells defective, mutated, and reservoirs for the novo synthesis of viruses are unwanted host cells and must be eliminated in many instances to allow the survival of the organism.

Data set [13] has as its system NRK cells. As to conditions: cells treated with picolinic acid; cited from earlier work.
The test system of data set [14] is marker defense genes PR-1, PR-2 and PDF1.2. The conditions noted are these: dose-dependent and time dependent; cited from earlier work.
The test system of data set [15] is rice. The conditions noted are these: in vivo; cited from earlier work.
For data set [16], the system named is virally-transformed cells. As to conditions: cited from earlier work.
Data set [17] concerns cells (iron incorporation). As to conditions: cited from earlier work.
For data set [18], the system named is normal cells (NRK, BALB 3T3). As to conditions: cited from earlier work.

On to `O=C(O)CN(CCN(CC(=O)O)CC(=O)O)CC(=O)O` [EDTA], for which, in data set [1], the “disintegration of viral membranes and release of Zinc Finger Proteins” value is reported as “partial disintegration of the viral membranes”. Further, in data set [2], the “disintegration of viral membranes (release of reverse transcriptase)” value is “partial disintegration of viral membranes”.

As for `O=C(O)CN(CCOCCOCCN(CC(=O)O)CC(=O)O)CC(=O)O` [EGTA], the “disintegration of viral membranes and release of Zinc Finger Proteins” value in data set [1] is “partial disintegration of the viral membranes”. The “disintegration of viral membranes (release of reverse transcriptase)” value in data set [2] is listed as “partial disintegration of viral membranes”.

In the case of `COS(C)(=O)=O` [MMS, Methyl Methane Sulphonate], the “growth and size of the plant” value in data set [3] (ars27A mutant, 3 weeks) is reported as “strongly inhibited”; in [3] (wild type, same concentrations) it was “not affecting”.

As for `NC(=O)c1cccnc1` [Nicotinamide, reference compound], the “effect on cell growth or apoptosis” value in data set [4] (at 48 h) was “no effect”.

For `NC(=O)c1ncn([C@@H]2O[C@H](CO)[C@@H](O)[C@H]2O)n1` [Virazole (Ribavirin)], in data set [5], the “use against tomato spotted wilt virus” value is listed as “successfully used”.

In the case of `CCCCc1ccc(C(=O)O)nc1` [fusaric acid, 5-butyl picolinic acid], the “outcome of treatment of virus-infected ornamental plants” value in data set [6] is given as “positive results”. In data set [7], the “concentration eliciting plant defense responses without toxic effects” value was 100 nM; the “concentrations that reduced root growth and induced membrane hyperpolarization/depolarization” value was > 500 µM. For the same molecule, the “germination of the angiosperm parasite” value in data set [8] is reported as “inhibited”. Moreover, in [9], the “efficacy against viral infection by HSV-1” value is “effective”. In addition, in data set [10], the “efficacy against viral infection by HSV-2” value is reported as “effective”. Further, in data set [11], the “removal of zinc (radioactive Zn65) from CCCC zinc finger of MPS-1” value is on record as “remove radioactive Zn65 from MPS-1; also recorded: remove zinc” and the “zinc dependent binding of recombinant MPS-1 to DNA (gel shift assays)” value is recorded as “inhibit the zinc dependent binding of recombinant MPS-1 to DNA”. Further, the “fate of viruses and host cells after treatment” value in data set [12] is recorded as “Death by apoptosis”.

Consider `O=C(O)c1ccccn1` [picolinic acid, 2-pyridine carboxylic acid], for which the “potency of prostaglandin E1 in elevating cyclic AMP” value in [13] is given as “two to five times more potent”. For the same molecule, the “mitochondrial cytochrome c release” value in [4] (3 mM picolinic acid) was “released cytochrome c”. The “outcome of treatment of virus-infected ornamental plants” value in data set [6] is reported as “positive results”. In addition, the “induction of marker defense genes PR-1, PR-2 and PDF1.2” value in [14] is recorded as “all induced”. In addition, the “hypersensitive response (HR)” value in [15] is on record as “elicit the hypersensitive response (HR)”. Also, in data set [16] (Kirsten sarcoma virus transformed cells), the “cell cycle arrest, Flow Microfluorometric Analysis of DNA” value is “G1 phase”. Further, the “cytotoxicity in transformed cells” value in [16] (longer exposure/further incubation) was “cytotoxicity and cell death was observed in all transformed cells; also recorded: cell death by apoptosis was observed in all transformed cells”. Moreover, in data set [11], the “removal of zinc (radioactive Zn65) from CCCC zinc finger of MPS-1” value is listed as “remove radioactive Zn65 from MPS-1; also recorded: remove zinc” and the “zinc dependent binding of recombinant MPS-1 to DNA (gel shift assays)” value is “inhibit the zinc dependent binding of recombinant MPS-1 to DNA”. Moreover, in [17], the “incorporation of iron into the cells” value is on record as “inhibits incorporation of iron into the cells” and the “removal of radioiron from the cells” value was “effectively removes radioiron from the cells”. Further, in [18], the “toxicity to normal cells” value was “no toxic effects”. In data set [12], the “fate of viruses and host cells after treatment” value is on record as “Death by apoptosis”.
